These results are taken from patent US10669273B2, “Use of aza-tryptanthrin derivatives as inhibitors of IDO1 and/or TDO” (Peking University, priority 2016, dated 2020).

In test [1] the target is IDO-1 (Homo sapiens (Human), UniProt P14902). Put plainly: Indoleamine-2,3-dioxygenase 1 inhibitory activity (absorbance at 321 nm). The format is biochemical.
Experimental: Experimental method: IDO-1 can oxidatively cleave the indole ring of tryptophan to form N-formylkynurenine. Referring to the method in the literature (Eddy W. Yue, et al. J. Med. Chem. 2009, 52, 7364-7367), 20 nM IDO-1, 2 mM D-tryptophan, 20 mM ascorbic acid, 3.5M methyl blue and 0.2 mg/mL antioxidant enzyme were sequentially added to 50 mM potassium phosphate buffer at room temperature. Due to the formation of N-formylkynurenine, the reaction rate was recorded by the increasing absorbance of the solution at 321 nm. IC50 values were calculated using Prism GraphPad software.
Test [2] has as its target TDO (Homo sapiens (Human), UniProt P48775). Put plainly: Tryptophan-2,3-dioxygenase inhibitory activity (absorbance at 321 nm). The format is biochemical. The following applies: read-out: TDO Inhibition rate. Here is the method:
Experimental method: TDO can oxidatively cleave the indole ring of tryptophan to form N-formylkynurenine. Referring to the method in the reference (Eddy W. Yue, et al. J. Med. Chem. 2009, 52, 7364-7367), a detection buffer containing 50 nM TDO, 10μM inhibitor, 200μM tryptophan, and the like were sequentially added thereto at room temperature. Due to the formation of N-formylkynurenine, the reaction rate was recorded by the increasing absorbance of the solution at 321 nm. IC50 values were calculated using Prism GraphPad software.

For test [3], the system named is melanoma B16. Put plainly: Melanoma B16 in mice experiment. The format is in vivo, C57BL/6J mice. As to conditions: intragastric once daily, 10 days; CY-1-26 20 mg/kg, 1-MT 200 mg/kg. Here is the method:
The in vivo efficacy of compound was tested with C57BL/6J mice bearing melanoma B16. The intragastric administration was 20 mg/kg, and 1-MT was a positive control (200 mg/kg), which was once daily. The observation and measurement were started on the day of the first administration, and the relevant indicators were recorded. The tumor-bearing mice were sacrificed at the end of the experiment, and the tumor pieces were dissected and weighed.
The tumor-bearing mice were administered by continuous intragastric administration for 10 days. The body weight of the animals in the drug-administered group was slightly slower than that of the negative control group. The animals were in good condition and no obvious side effects were observed.
After 10 days of administration, the animals were euthanized, the subcutaneous tumors were dissected, weighed, and the animals were dissected for gross observation.

Test [4] concerns Lewis lung cancer. Put plainly: Lewis lung cancer in mice, in vivo anti-tumor experiment. Details: species or system C57BL/6J mice. The following applies: intraperitoneal 20 mg/Kg, 11 days.
Experimental: The observation and measurement were started on the day of the first administration, and the relevant indicators were recorded. The tumor-bearing mice were sacrificed at the end of the experiment, and the tumor pieces were dissected and weighed. The tumor-bearing mice were administered intraperitoneally for 11 days. […] After 11 days of continuous intraperitoneal injection of tumor-bearing mice, the animals were euthanized, the subcutaneous tumors were dissected, weighed, photographed, and the animals were dissected for gross observation.
The subject of test [5] is T cells. As to conditions: cited from earlier work.
Test [6] has as its system TNF-α. The following applies: concentration up to 20 μM; cited from earlier work.
Test [7] relates to melanoma B16. Put plainly: Repeated verification, melanoma B16 in mice experiment. Format: in vivo, C57BL/6J mice. The following applies: intragastric 20 mg/kg once daily, 14 days. As to the method:
The in vivo efficacy of compound was tested in three groups (6 in each group) of C57BL/6J mice bearing melanoma B16. CY-1-26 hydrochloride was intragastrically administered at 20 mg/kg (suspended in 0.5% sodium carboxymethyl cellulose solution), and 1-MT was a positive control (200 mg/kg, suspended in 0.5% sodium carboxymethyl cellulose solution), the blank control was 0.5% sodium carboxymethyl cellulose solution, all once daily dose. On the day of the first dose, the relevant indicators were observed, measured and recorded. At the end of the experiment, the tumor-bearing mice were sacrificed and the tumor pieces were dissected and weighed.
The tumor-bearing mice were administered by continuous intragastric administration for 14 days. The body weight of the animals in the drug-administered group was slightly slower than that of the negative control group. The animals were in good condition and no obvious side effects were observed.
After 14 days of administration, the animals were euthanized, the subcutaneous tumors were dissected, weighed, and the animals were dissected for gross observation.

Setting [8] is: 20 nM IDO-1, 2 mM D-tryptophan, read-out: IDO-1 inhibitory activity, IC50.
Where [9] appears, read: compound at 10 μM, 50 nM TDO, 200 μM tryptophan.
The mark [10] stands for this setting: Table 1, comparison with tryptanthrins 5a, 5b, 5c, 5i, read-out: Comparison of inhibitory activity of the IDO1, IC50.

Molecules are shown by their SMILES. Where a name gives a salt, the structure may show the parent alone. Read-outs that look alike come from different tables or passages of the source.

Chain of IDO-1 (P14902 whole entry): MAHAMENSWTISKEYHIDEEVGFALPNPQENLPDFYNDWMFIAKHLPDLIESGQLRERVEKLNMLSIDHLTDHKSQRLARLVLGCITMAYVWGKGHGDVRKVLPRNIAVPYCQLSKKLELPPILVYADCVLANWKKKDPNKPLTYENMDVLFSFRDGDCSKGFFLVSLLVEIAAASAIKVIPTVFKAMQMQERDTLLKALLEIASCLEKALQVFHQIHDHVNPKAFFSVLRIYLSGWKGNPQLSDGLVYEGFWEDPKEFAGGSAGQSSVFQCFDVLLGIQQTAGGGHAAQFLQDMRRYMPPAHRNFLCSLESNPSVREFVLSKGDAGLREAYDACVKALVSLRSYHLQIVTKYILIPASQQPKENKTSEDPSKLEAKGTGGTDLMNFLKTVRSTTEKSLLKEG
Chain of TDO (P48775 whole entry): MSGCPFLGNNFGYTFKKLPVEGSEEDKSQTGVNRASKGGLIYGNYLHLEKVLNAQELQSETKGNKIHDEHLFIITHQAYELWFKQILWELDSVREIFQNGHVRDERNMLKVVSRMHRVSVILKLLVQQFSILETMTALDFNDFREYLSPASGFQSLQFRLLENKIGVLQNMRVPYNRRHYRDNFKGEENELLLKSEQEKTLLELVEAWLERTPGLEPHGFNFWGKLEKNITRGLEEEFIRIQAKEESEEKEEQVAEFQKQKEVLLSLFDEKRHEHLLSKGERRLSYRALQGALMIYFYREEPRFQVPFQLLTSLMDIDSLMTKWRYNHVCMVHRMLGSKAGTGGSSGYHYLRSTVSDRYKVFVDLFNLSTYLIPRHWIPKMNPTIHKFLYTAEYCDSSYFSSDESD

As a reminder, the IC50 is the concentration that inhibits the measured activity by half. For the compound `COc1ccc2c(c1)C(=NO)c1nc3ncccc3c(=O)n1-2` [CY-1-15, 11-(hydroxyimino)-9-methoxypyrido[2′,3′:4,5]pyrimido[1,2-α]indole-5(11H)-one], the IC50 in test [1] (setting [8]) was in the range of 1100 to 10000 nM.
For orientation: inhibition means the percentage by which the read-out fell short of the control. Turning to `O=C1c2cc(OC(F)(F)F)ccc2-n2c1nc1ncccc1c2=O` [CY-1-3, 9-(trifluoromethoxy)pyrido[2′,3′:4,5]pyrimido[1,2-c]indole-5,11-dione], the inhibition at 10 µM in test [2] (setting [9]) amounted to 16%.
Take `O=c1c2cccnc2nc2n1-c1ccccc1C2=NO` [CY-1-12, 11-(hydroxyimino)pyrido[2′,3′:4,5]pyrimido[1,2-α]indol-5(11H)-one]: in test [1] (setting [8]), the concentration for half-maximal inhibition (IC50) fell in the range of 1100 to 10000 nM.
With `O=C1c2cc(Cl)ccc2-n2c1nc1cnccc1c2=O` [CY-1-10, 9-chloropyrido[3′,4′: 4,5]pyrimido[1,2-α]indole-5,11-dione], the inhibition at 10 µM in test [2] was 8%. Further, the IC50 in test [1] (setting [8]) is 110 to 1000 nM.
Regarding `O=c1c2cccnc2nc2n1-c1ccc([N+](=O)[O-])cc1C2=NOS(=O)(=O)O` [CY-1-24, (((9-nitro-5-oxopyrido[2′,3′:4,5]pyrimido[1,2-α]indol-11(5H)-ylidene)amino)oxy) sulfonic acid], the IC50 in test [1] (setting [8]) was 110 to 1000 nM.
With `CCON=C1c2cc([N+](=O)[O-])ccc2-n2c1nc1ncccc1c2=O` [CY-1-26, 11-(ethoxyimino)-9-nitropyrido[2′,3′:4,5]pyrimido[1,2-α]indol-5(11H)-one], the IC50 in test [1] (setting [8]) lay within 1100 to 10000 nM. The “tumor inhibition rate (tumor weight)” value in test [3] came out at 33.0%.
`O=C1c2cc(F)ccc2-n2c1nc1cnccc1c2=O` [CY-1-11, 9-fluoropyrido[3′,4′:4,5]pyrimido[1,2-α]indole-5,11-dione]: the results for the IC50 in test [1] (setting [8]) and in test [1] (setting [10]) were 110 to 1000 nM and 100 to 1000 nM, respectively.
As for `Cn1cc(CC(N)C(=O)O)c2ccccc21` (centres unmarked) [Compound 1-MT, reference compound], in test [3], the “tumor inhibition rate (tumor weight)” value came to 26.3%.
With `Cc1ccc2c(c1)C(=NO)c1nc3ncccc3c(=O)n1-2` [CY-1-14, 11-(hydroxyimino)-9-methylpyrido[2′,3′: 4,5]pyrimido[1,2-α]indole-5 (11H)-one], the half-maximal inhibitory concentration (IC50) in test [1] (setting [8]) fell in the range of 1100 to 10000 nM.
Turning to `CN(C)CCON=C1c2cc([N+](=O)[O-])ccc2-n2c1nc1ncccc1c2=O` [CY-1-17, 11-((2-(dimethylamino)ethoxy)imino)-9-nitropyrido[2′,3′:4,5]pyrimido[1,2-α]indol-5(11H)-one], in test [2] (setting [9]), the inhibition at 10 µM was found to be 64%. For the same compound, the “tumor inhibition rate (tumor weight)” value in test [4] is reported as 51.8%.
In the case of `O=C1c2cc(F)ccc2-n2c1nc1ccccc1c2=O`, the “proliferation of T cells” value in test [5] is “can promote the proliferation of T cells”.
As to `COc1ccc2c(c1)C(=NNC(=S)N(C)C)c1nc3ncccc3c(=O)n1-2` [CY-1-30, 2-(9-methoxy-5-oxopyrido[2′,3′:4,5]pyrimido[1,2-α]indol-11(5H)-ylidene)-N,N-di methyl-hydrazine-1-carbothioamide], in test [1] (setting [8]), the IC50 is 1100 to 10000 nM.
Consider `O=C1c2cc([N+](=O)[O-])ccc2-n2c1nc1cccnc1c2=O` [8-nitro-1-aza-tryptanthrin], for which the “activity in production of TNF-α” value in test [6] is reported as “did not exhibit activity”.
As for `O=C1c2cc([N+](=O)[O-])ccc2-n2c1nc1ncccc1c2=O` [CY-1-4, 9-nitropyridine[2′,3′:4,5]pyrimido[1,2-c]indole-5,11-dione], the inhibition at 10 µM in test [2] was 97%.
For `CN(C)CCON=C1c2cc(Cl)ccc2-n2c1nc1ncccc1c2=O` [CY-1-18, 9-chloro-11-((2-(dimethylamino)ethoxy)imino)pyrido[2′,3′:4,5]pyrimido[1,2-α]indol-5(11H)-one], the IC50 in test [1] (setting [8]) is 110 to 1000 nM.
Turning to `CON=C1c2cc([N+](=O)[O-])ccc2-n2c1nc1ncccc1c2=O` [CY-1-25, 11-(methoxyimino)-9-nitropyrido[2′,3′: 4,5]pyrimido[1,2-α]indol-5 (11H)-one], the IC50 in test [1] (setting [8]) was in the range of 110 to 1000 nM.
Regarding `NC(=S)NN=C1c2cc([N+](=O)[O-])ccc2-n2c1nc1ncccc1c2=O` [CY-1-29, 2-(9-nitro-5-oxopyrido[2′,3′:4,5]pyrimido[1,2-c]indol-11(5H)-ylidene)hydrazine-1-carbothioamide], the inhibition at 10 µM in test [2] (setting [9]) stood at 93%.
On to `CN(C)CCCON=C1c2cc(Cl)ccc2-n2c1nc1ncccc1c2=O` [CY-1-20, 9-chloro-11-((3-(dimethylamino)propoxy)imino)pyrido[2′,3′:4,5]pyrimido[1,2-α]indol-5(11H)-one], for which the concentration for half-maximal inhibition (IC50) in test [1] (setting [8]) lay in the range of 1100 to 10000 nM.
Regarding `O=C1c2cc(Cl)ccc2-n2c1nc1ncccc1c2=O` [CY-1-5, 9-chloropyrido[2′,3′:4,5]pyrimido[1,2-c]indole-5,11-dione], the inhibition at 10 µM in test [2] (setting [9]) was determined as 35%.
Consider `CCON=C1c2cc([N+](=O)[O-])ccc2-n2c1nc1ncccc1c2=O` [CY-1-26 hydrochloride], for which the “tumor inhibition rate (tumor weight)” value in test [7] is 46.0%.
Regarding `O=c1c2cccnc2nc2n1-c1ccc([N+](=O)[O-])cc1C2=NOCCO` [CY-1-21, 11-((2-hydroxyethoxy)imino)-9-nitropyrido[2′,3′:4,5]pyrimido[1,2-α]indol-5(11H)-one], the IC50 in test [1] (setting [8]) lay in the range of 110 to 1000 nM.
Turning to `O=C1c2ccccc2-n2c1nc1cnccc1c2=O` [CY-1-8, pyrido[3′,4′:4,5]pyrimido[1,2-c]indole-5,11-dione], the half-inhibitory concentration (IC50) lay within 110 to 1000 nM in test [1] (setting [8]) and 100 to 1000 nM in test [1] (setting [10]).
For `N=C(N)NN=C1c2cc([N+](=O)[O-])ccc2-n2c1nc1ncccc1c2=O` [CY-1-23, 2-(9-nitro-5-oxopyrido[2′,3′:4,5]pyrimido[1,2-c]indol-11(5H)-ylidene)hydrazine-1-carboximidamide], in test [2], the inhibition at 10 µM was determined as 86%.
For the compound `Cc1ccc2c(c1)C(=O)c1nc3ncccc3c(=O)n1-2` [CY-1-7, 9-methylpyrido[2′,3′:4,5]pyrimido[1,2-c]indole-5,11-dione], the results for the half-inhibitory concentration (IC50) in test [1] (setting [8]) and in test [1] (setting [10]) were 110 to 1000 nM and 100 to 1000 nM, respectively.
As for `O=c1c2cccnc2nc2n1-c1ccc(Cl)cc1C2=NO` [CY-1-13, 9-chloro-11-(hydroxyimino)pyrido[2′,3′:4,5]pyrimido[1,2-α]indole-5(11H)-one], in test [2] (setting [9]), the inhibition at 10 µM amounted to 6%. In addition, in test [1] (setting [8]), the IC50 lay within 110 to 1000 nM.
Take `COc1ccc2c(c1)C(=O)c1nc3cnccc3c(=O)n1-2` [CY-1-9, 9-methoxypyrido[3′,4′:4,5]pyrimido[1,2-c]indole-5,11-dione]: the IC50 in test [1] (setting [8]) is 1100 to 10000 nM.
On the same count and under the same terms, the same measure for `C=CCON=C1c2cc([N+](=O)[O-])ccc2-n2c1nc1ncccc1c2=O` [CY-1-27, 11-((allyloxy)imino)-9-nitropyrido[2′,3′:4,5]pyrimido[1,2-α]indol-5(11H)-one]: 1100 to 10000 nM.
`CN(C)CCON=C1c2ccccc2-n2c1nc1ncccc1c2=O` [CY-1-16, 11-((2-(dimethylamino)ethoxy)imino)pyrido[2′,3′:4,5]pyrimido[1,2-α]indole-5(11H)-one]: the IC50 in test [1] (setting [8]) fell in the range of 110 to 1000 nM.
On the same count and under the same terms, the same measure for `CN(C)CCON=C1c2cc(F)ccc2-n2c1nc1ncccc1c2=O` [CY-1-19, 11-((2-(dimethylamino)ethoxy)imino)-9-fluoropyrido[2′,3′:4,5]pyrimido[1,2-α]indol-5(11H)-one]: 110 to 1000 nM.
As for `O=C1c2ccccc2-n2c1nc1ncccc1c2=O` [CY-1-1, pyrido[2′,3′:4,5]pyrimido[1,2-α]indole-5,11-dione], the half-inhibitory concentration (IC50) lay in the range of 110 to 1000 nM in test [1] (setting [8]) and 100 to 1000 nM in test [1] (setting [10]).
With `O=P1(N(CCCl)CCCl)NCCCO1` (centres unmarked) [cyclophosphamide, reference compound], the “tumor inhibition rate (tumor weight)” value in test [4] came out at 29.9%.
Regarding `O=C1c2cc(F)ccc2-n2c1nc1ncccc1c2=O` [CY-1-2, 9-fluoropyrido[2′,3′:4,5]pyrimido[1,2-c]indole-5,11-dione], in test [2] (setting [9]), the inhibition at 10 µM was determined as 44%.
Take `COc1ccc2c(c1)C(=O)c1nc3ncccc3c(=O)n1-2` [CY-1-6, 9-methoxypyrido[2′,3′:4,5]pyrimido[1,2-c]indole-5,11-dione]: the IC50 in test [1] (setting [8]) lay in the range of 110 to 1000 nM.
